Laboratory results from ChEMBL document CHEMBL3808308, “Synergistic potentiation of (-)-lomaiviticin A cytotoxicity by the ATR inhibitor VE-821” (Bioorg Med Chem Lett, 2016).
Calls of active or inactive are those of the source. The calls are words filed in the database; no cut-off is given here.

Legend:
K562 [1] = assay: Potentiation of 0.05 nM (-)-lomaiviticin A-induced cytotoxicity against human K562 cells assessed as fraction ratio affected at 10 uM after 24 hrs by cell titer-glo luminescence assay; format: functional
K562 [2] = assay: Potentiation of 0.25 nM (-)-lomaiviticin A-induced cytotoxicity against human K562 cells assessed as fraction ratio affected at 10 uM after 24 hrs by cell titer-glo luminescence assay; format: functional
K562 [3] = assay: Potentiation of 0.5 nM (-)-lomaiviticin A-induced cytotoxicity against human K562 cells assessed as fraction ratio affected at 10 uM after 24 hrs by cell titer-glo luminescence assay; format: functional
K562 [4] = assay: Potentiation of 2.5 nM (-)-lomaiviticin A-induced cytotoxicity against human K562 cells assessed as fraction ratio affected at 10 uM after 24 hrs by cell titer-glo luminescence assay; format: functional
K562 [5] = assay: Potentiation of 5 nM (-)-lomaiviticin A-induced cytotoxicity against human K562 cells assessed as fraction ratio affected at 10 uM after 24 hrs by cell titer-glo luminescence assay; format: functional
K562 [6] = assay: Potentiation of 0.025 nM (-)-lomaiviticin A-induced cytotoxicity against human K562 cells assessed as combination index at 10 uM after 24 hrs by cell titer-glo luminescence assay; format: functional
K562 [7] = assay: Potentiation of 0.05 nM (-)-lomaiviticin A-induced cytotoxicity against human K562 cells assessed as combination index at 10 uM after 24 hrs by cell titer-glo luminescence assay; format: functional
K562 [8] = assay: Potentiation of 0.25 nM (-)-lomaiviticin A-induced cytotoxicity against human K562 cells assessed as combination index at 10 uM after 24 hrs by cell titer-glo luminescence assay; format: functional
K562 [9] = assay: Potentiation of 0.5 nM (-)-lomaiviticin A-induced cytotoxicity against human K562 cells assessed as combination index at 10 uM after 24 hrs by cell titer-glo luminescence assay; format: functional
K562 [10] = assay: Potentiation of 2.5 nM (-)-lomaiviticin A-induced cytotoxicity against human K562 cells assessed as combination index at 10 uM after 24 hrs by cell titer-glo luminescence assay; format: functional
K562 [11] = assay: Potentiation of 5 nM (-)-lomaiviticin A-induced cytotoxicity against human K562 cells assessed as combination index at 10 uM after 24 hrs by cell titer-glo luminescence assay; format: functional
K562 [12] = assay: Potentiation of 0.025 nM (-)-lomaiviticin A-induced cytotoxicity against human K562 cells assessed as fraction ratio affected at 10 uM after 48 hrs by cell titer-glo luminescence assay; format: functional
K562 [13] = assay: Potentiation of 0.05 nM (-)-lomaiviticin A-induced cytotoxicity against human K562 cells assessed as fraction ratio affected at 10 uM after 48 hrs by cell titer-glo luminescence assay; format: functional
K562 [14] = assay: Potentiation of 0.25 nM (-)-lomaiviticin A-induced cytotoxicity against human K562 cells assessed as fraction ratio affected at 10 uM after 48 hrs by cell titer-glo luminescence assay; format: functional
K562 [15] = assay: Potentiation of 0.5 nM (-)-lomaiviticin A-induced cytotoxicity against human K562 cells assessed as fraction ratio affected at 10 uM after 48 hrs by cell titer-glo luminescence assay; format: functional
K562 [16] = assay: Potentiation of 2.5 nM (-)-lomaiviticin A-induced cytotoxicity against human K562 cells assessed as fraction ratio affected at 10 uM after 48 hrs by cell titer-glo luminescence assay; format: functional
K562 [17] = assay: Potentiation of 5 nM (-)-lomaiviticin A-induced cytotoxicity against human K562 cells assessed as fraction ratio affected at 10 uM after 48 hrs by cell titer-glo luminescence assay; format: functional
K562 [18] = assay: Potentiation of 0.025 nM (-)-lomaiviticin A-induced cytotoxicity against human K562 cells assessed as combination index at 10 uM after 48 hrs by cell titer-glo luminescence assay; format: functional
K562 [19] = assay: Potentiation of 0.05 nM (-)-lomaiviticin A-induced cytotoxicity against human K562 cells assessed as combination index at 10 uM after 48 hrs by cell titer-glo luminescence assay; format: functional
K562 [20] = assay: Potentiation of 0.25 nM (-)-lomaiviticin A-induced cytotoxicity against human K562 cells assessed as combination index at 10 uM after 48 hrs by cell titer-glo luminescence assay; format: functional
K562 [21] = assay: Potentiation of 0.5 nM (-)-lomaiviticin A-induced cytotoxicity against human K562 cells assessed as combination index at 10 uM after 48 hrs by cell titer-glo luminescence assay; format: functional
K562 [22] = assay: Potentiation of 2.5 nM (-)-lomaiviticin A-induced cytotoxicity against human K562 cells assessed as combination index at 10 uM after 48 hrs by cell titer-glo luminescence assay; format: functional
K562 [23] = assay: Potentiation of 5 nM (-)-lomaiviticin A-induced cytotoxicity against human K562 cells assessed as combination index at 10 uM after 48 hrs by cell titer-glo luminescence assay; format: functional
K562 [24] = assay: Cytotoxicity against human K562 cells assessed as decrease in cell viability up to 10 uM after 24 to 48 hrs by cell titer-glo luminescence assay; format: cell-based
K562 [25] = assay: Potentiation of 50 pM (-)-lomaiviticin A-induced cytotoxicity against human K562 cells assessed as decrease in cell viability at 10 uM after 24 hrs by cell titer-glo luminescence assay; format: functional
K562 [26] = assay: Potentiation of 50 pM (-)-lomaiviticin A-induced cytotoxicity against human K562 cells assessed as decrease in cell viability at 10 uM after 48 hrs by cell titer-glo luminescence assay; format: functional
K562 [27] = assay: Potentiation of 500 pM (-)-lomaiviticin A-induced cytotoxicity against human K562 cells assessed as decrease in cell viability at 10 uM after 48 hrs by cell titer-glo luminescence assay; format: functional
K562 [28] = assay: Induction of DNA double-strand breaks in human K562 cells after 24 hrs by neutral comet assay in presence of (-)-lomaiviticin A; format: functional, cell-based
K562 [29] = assay: Induction of DNA double-strand breaks in human K562 cells assessed as median tail moment at 10 uM after 24 hrs by neutral comet assay in presence of 500 pM (-)-lomaiviticin A; format: functional
K562 [30] = assay: Induction of apoptosis in human K562 cells assessed as gammaH2AX/53BP1 levels at 10 uM after 48 hrs by DAPI staining based immunofluorescence microscopy in presence of 25 to 250 pM (-)-lomaiviticin A; format: functional, cell-based
K562 [31] = assay: Induction of apoptosis in human K562 cells assessed as gammaH2AX/53BP1 levels at 10 uM after 48 hrs by DAPI staining based immunofluorescence microscopy; format: cell-based; settings: k562, 48 h
K562 [32] = assay: Cytotoxicity against human K562 cells assessed as decrease in cell viability up to 2.5 to 10 uM after 24 to 48 hrs by cell titer-glo luminescence assay; format: cell-based
[33] = Cytotoxicity against human K562 cells assessed as decrease in cell viability after 24 hrs by cell titer-glo luminescence assay; format: cell-based; settings: read-out: ED50
[34] = Cytotoxicity against human K562 cells assessed as decrease in cell viability after 48 hrs by cell titer-glo luminescence assay; format: cell-based; settings: read-out: ED50
K562 [35] = assay: Potentiation of 0.025 nM (-)-lomaiviticin A-induced cytotoxicity against human K562 cells assessed as fraction ratio affected at 10 uM after 24 hrs by cell titer-glo luminescence assay; format: functional

CS(=O)(=O)c1ccc(-c2cnc(N)c(C(=O)Nc3ccccc3)n2)cc1
Ratio (K562 [1]): 0.1819 | Ratio (K562 [2]): 0.6516 | Ratio (K562 [3]): 0.814 | Ratio (K562 [4]): 0.8772 | Ratio (K562 [5]): 0.9357 | CI (K562 [6]): 0.1138 | CI (K562 [7]): 0.0774 | CI (K562 [8]): 0.06881 | CI (K562 [9]): 0.09717 | CI (K562 [10]): 0.4019 | CI (K562 [11]): 0.6748 | Ratio (K562 [12]): 0.3737 | Ratio (K562 [13]): 0.6017 | Ratio (K562 [14]): 0.9206 | Ratio (K562 [15]): 0.961 | Ratio (K562 [16]): 0.966 | Ratio (K562 [17]): 0.9837 | CI (K562 [18]): 0.2066 | CI (K562 [19]): 0.1328 | CI (K562 [20]): 0.1058 | CI (K562 [21]): 0.1448 | CI (K562 [22]): 0.6223 | CI (K562 [23]): 1.029 | Activity (K562 [24]): < 13% | Activity (K562 [25]): 18% | Activity (K562 [26]): 40% | Activity (K562 [27]): 96% | Activity (K562 [28]): Dose-dependent effect | Activity (K562 [29]): 34 | Activity (K562 [30]): Active | Activity (K562 [31]): Non-toxic | Activity (K562 [32]): Non-toxic | CC50 at 24 h [33]: 449 µM | CC50 at 48 h [34]: 71 µM | Ratio (K562 [35]): 0.08806
